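In this assay, cells in 96-well plates receive the compound at five concentrations for 48 hours. Endpoints are linearly interpolated between the surrounding concentrations. At the GI50, growth is halved. At the TGI there is no net growth.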
Tests used:
Test in all cases: NCI-60 cell line screen, 48 h
LXFL 529 NSCLC = system: LXFL 529 NSCLC
RXF-631 renal = system: RXF-631 renal
SK-MEL-5 melanoma = system: SK-MEL-5 melanoma
SK-OV-3 ovarian = system: SK-OV-3 ovarian
EKVX NSCLC = system: EKVX NSCLC
UACC-62 melanoma = system: UACC-62 melanoma
CCRF-CEM leukemia = system: CCRF-CEM leukemia
HOP-18 NSCLC = system: HOP-18 NSCLC
SNB-78 CNS = system: SNB-78 CNS
TK-10 renal = system: TK-10 renal
COLO 205 colon = system: COLO 205 colon
U251 CNS = system: U251 CNS
HL-60(TB) leukemia = system: HL-60(TB) leukemia
XF 498 CNS = system: XF 498 CNS
SK-MEL-2 melanoma = system: SK-MEL-2 melanoma
NCI-H522 lung = system: NCI-H522 lung
MALME-3M melanoma = system: MALME-3M melanoma
HOP-92 NSCLC = system: HOP-92 NSCLC
HT29 colon = system: HT29 colon
RPMI-8226 leukemia = system: RPMI-8226 leukemia
UO-31 renal = system: UO-31 renal
DMS 114 small cell lung = system: DMS 114 small cell lung
NCI-H460 lung = system: NCI-H460 lung
NCI-H226 lung = system: NCI-H226 lung
SNB-19 CNS = system: SNB-19 CNS
KM20L2 colon = system: KM20L2 colon
SK-MEL-28 melanoma = system: SK-MEL-28 melanoma
MOLT-4 leukemia = system: MOLT-4 leukemia
ACHN renal = system: ACHN renal
CAKI-1 renal = system: CAKI-1 renal
SW-620 colon = system: SW-620 colon
K-562 leukemia = system: K-562 leukemia
SF-539 CNS = system: SF-539 CNS
DLD-1 colon = system: DLD-1 colon
A498 renal = system: A498 renal
SN12C renal = system: SN12C renal
OVCAR-8 ovarian = system: OVCAR-8 ovarian
IGROV1 ovarian = system: IGROV1 ovarian
M14 melanoma = system: M14 melanoma
OVCAR-3 ovarian = system: OVCAR-3 ovarian
NCI-H23 lung = system: NCI-H23 lung
SNB-75 CNS = system: SNB-75 CNS
SF-268 CNS = system: SF-268 CNS
M19-MEL melanoma = system: M19-MEL melanoma
HCT-15 colon = system: HCT-15 colon
SF-295 CNS = system: SF-295 CNS
LOX IMVI melanoma = system: LOX IMVI melanoma
RXF 393 renal = system: RXF 393 renal
786-0 renal = system: 786-0 renal
OVCAR-4 ovarian = system: OVCAR-4 ovarian
KM12 colon = system: KM12 colon
A549 NSCLC = system: A549 NSCLC
UACC-257 melanoma = system: UACC-257 melanoma
HOP-62 NSCLC = system: HOP-62 NSCLC
HCT-116 colon = system: HCT-116 colon
HCC-2998 colon = system: HCC-2998 colon
OVCAR-5 ovarian = system: OVCAR-5 ovarian

**Q.** What does the source list for C#CCOc1c(C(=O)OCC)c(=O)n(C)c2ccccc12?
**A.** TGI (LXFL 529 NSCLC): > 100 µM; TGI (RXF-631 renal): > 100 µM; TGI (SK-MEL-5 melanoma): > 100 µM; TGI (SK-OV-3 ovarian): > 100 µM; TGI (EKVX NSCLC): > 100 µM; TGI (UACC-62 melanoma): > 100 µM; TGI (CCRF-CEM leukemia): > 100 µM; TGI (HOP-18 NSCLC): > 100 µM; TGI (SNB-78 CNS): > 100 µM; TGI (TK-10 renal): > 100 µM; TGI (COLO 205 colon): > 100 µM; TGI (U251 CNS): > 100 µM; TGI (HL-60(TB) leukemia): > 100 µM; TGI (XF 498 CNS): > 100 µM; TGI (SK-MEL-2 melanoma): > 100 µM; TGI (NCI-H522 lung): > 100 µM; TGI (MALME-3M melanoma): > 100 µM; TGI (HOP-92 NSCLC): > 100 µM; TGI (HT29 colon): > 100 µM; TGI (RPMI-8226 leukemia): > 100 µM; TGI (UO-31 renal): > 100 µM; TGI (DMS 114 small cell lung): > 100 µM; TGI (NCI-H460 lung): > 100 µM; TGI (NCI-H226 lung): > 100 µM; TGI (SNB-19 CNS): > 100 µM; TGI (KM20L2 colon): > 100 µM; TGI (SK-MEL-28 melanoma): > 100 µM; TGI (MOLT-4 leukemia): > 100 µM; TGI (ACHN renal): > 100 µM; TGI (CAKI-1 renal): > 100 µM; TGI (SW-620 colon): > 100 µM; TGI (K-562 leukemia): > 100 µM; TGI (SF-539 CNS): > 100 µM; TGI (DLD-1 colon): > 100 µM; TGI (A498 renal): > 100 µM; TGI (SN12C renal): > 100 µM; TGI (OVCAR-8 ovarian): > 100 µM; TGI (IGROV1 ovarian): > 100 µM; TGI (M14 melanoma): > 100 µM; TGI (OVCAR-3 ovarian): > 100 µM; TGI (NCI-H23 lung): > 100 µM; TGI (SNB-75 CNS): > 100 µM; TGI (SF-268 CNS): > 100 µM; TGI (M19-MEL melanoma): > 100 µM; TGI (HCT-15 colon): > 100 µM; TGI (SF-295 CNS): > 100 µM; TGI (LOX IMVI melanoma): > 100 µM

**Q.** What does the source list for CC(=O)[CH-]C(=O)c1ccccc1.CC(=O)[CH-]C(=O)c1ccccc1.CC1(C)C2CCC1(C)C([O-])C2.CC1(C)C2CCC1(C)C([O-])C2.[Ti+4]?
**A.** GI50 (LXFL 529 NSCLC): 23.7 µM; TGI (LXFL 529 NSCLC): > 100 µM; GI50 (SK-MEL-5 melanoma): 21.9 µM; TGI (SK-MEL-5 melanoma): 39.1 µM; GI50 (SK-OV-3 ovarian): 20.8 µM; TGI (SK-OV-3 ovarian): 74.1 µM; GI50 (EKVX NSCLC): 69.6 µM; TGI (EKVX NSCLC): > 100 µM; GI50 (UACC-62 melanoma): 16.7 µM; TGI (UACC-62 melanoma): 51.3 µM; GI50 (CCRF-CEM leukemia): 25.1 µM; TGI (CCRF-CEM leukemia): > 100 µM; GI50 (HOP-18 NSCLC): 36.6 µM; TGI (HOP-18 NSCLC): > 100 µM; GI50 (RXF 393 renal): 17.6 µM; TGI (RXF 393 renal): 36.1 µM; GI50 (TK-10 renal): 53.5 µM; TGI (TK-10 renal): > 100 µM; GI50 (786-0 renal): 25.9 µM; TGI (786-0 renal): > 100 µM; GI50 (COLO 205 colon): 38.4 µM; TGI (COLO 205 colon): > 100 µM; GI50 (U251 CNS): 40.4 µM; TGI (U251 CNS): > 100 µM; GI50 (HL-60(TB) leukemia): 23.8 µM; TGI (HL-60(TB) leukemia): > 100 µM; GI50 (OVCAR-4 ovarian): 97.3 µM; TGI (OVCAR-4 ovarian): > 100 µM; GI50 (KM12 colon): 34.8 µM; TGI (KM12 colon): > 100 µM; GI50 (A549 NSCLC): 23.9 µM; TGI (A549 NSCLC): > 100 µM; GI50 (UACC-257 melanoma): 88.7 µM; TGI (UACC-257 melanoma): > 100 µM; GI50 (SK-MEL-2 melanoma): 14.2 µM; TGI (SK-MEL-2 melanoma): 29.6 µM; GI50 (HOP-62 NSCLC): 25.7 µM; TGI (HOP-62 NSCLC): 81.8 µM; GI50 (MALME-3M melanoma): 12.4 µM; TGI (MALME-3M melanoma): 30.2 µM; GI50 (HOP-92 NSCLC): 12.9 µM; TGI (HOP-92 NSCLC): 34.9 µM; GI50 (HT29 colon): 56.7 µM; TGI (HT29 colon): > 100 µM; GI50 (RPMI-8226 leukemia): 25 µM; TGI (RPMI-8226 leukemia): > 100 µM; GI50 (UO-31 renal): 27.8 µM; TGI (UO-31 renal): 93.8 µM; GI50 (NCI-H460 lung): 47.7 µM; TGI (NCI-H460 lung): > 100 µM; GI50 (NCI-H226 lung): 23.2 µM; TGI (NCI-H226 lung): 90.7 µM; GI50 (SNB-19 CNS): 25.8 µM; TGI (SNB-19 CNS): 97.7 µM; GI50 (KM20L2 colon): 60 µM; TGI (KM20L2 colon): > 100 µM; GI50 (HCT-116 colon): 34.9 µM; TGI (HCT-116 colon): > 100 µM; GI50 (SK-MEL-28 melanoma): 34.1 µM; TGI (SK-MEL-28 melanoma): > 100 µM; GI50 (MOLT-4 leukemia): 34.8 µM; TGI (MOLT-4 leukemia): > 100 µM; GI50 (ACHN renal): 54.4 µM; TGI (ACHN renal): > 100 µM; GI50 (HCC-2998 colon): 38.5 µM; TGI (HCC-2998 colon): > 100 µM; GI50 (CAKI-1 renal): 51.4 µM; TGI (CAKI-1 renal): > 100 µM; GI50 (SW-620 colon): 36.6 µM; TGI (SW-620 colon): > 100 µM; GI50 (K-562 leukemia): 30.5 µM; TGI (K-562 leukemia): > 100 µM; GI50 (SF-539 CNS): 17.8 µM; TGI (SF-539 CNS): 45.9 µM; GI50 (DLD-1 colon): 29.2 µM; TGI (DLD-1 colon): > 100 µM; GI50 (SN12C renal): 27.9 µM; TGI (SN12C renal): > 100 µM; GI50 (OVCAR-8 ovarian): 44.9 µM; TGI (OVCAR-8 ovarian): > 100 µM; GI50 (IGROV1 ovarian): 25.3 µM; TGI (IGROV1 ovarian): 85.8 µM; GI50 (M14 melanoma): 20.4 µM; TGI (M14 melanoma): 44.1 µM; GI50 (OVCAR-3 ovarian): 59.3 µM; TGI (OVCAR-3 ovarian): > 100 µM; GI50 (OVCAR-5 ovarian): > 100 µM; TGI (OVCAR-5 ovarian): > 100 µM; GI50 (SF-268 CNS): 34.8 µM; TGI (SF-268 CNS): > 100 µM; GI50 (M19-MEL melanoma): 24.4 µM; TGI (M19-MEL melanoma): > 100 µM; GI50 (HCT-15 colon): 30.9 µM; TGI (HCT-15 colon): > 100 µM; GI50 (SF-295 CNS): 38.9 µM; TGI (SF-295 CNS): > 100 µM; GI50 (LOX IMVI melanoma): 25.1 µM; TGI (LOX IMVI melanoma): > 100 µM

Source: PubChem BioAssay (NCI)
